Reference: PubChem BioAssay (NCI)
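Dose response: 5 concentrations. Exposure: 48 h. Format: 96-well plates. Endpoint: linear interpolation; highest concentration if not reached. TGI: concentration producing complete growth inhibition.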

Key:
Assay in all cases: NCI tumour cell line growth inhibition, 48 h
[1] = tested on: UO-31 renal
[2] = tested on: HOP-62 NSCLC
[3] = tested on: HOP-18 NSCLC
[4] = tested on: KM12 colon
[5] = tested on: HT29 colon
[6] = tested on: DLD-1 colon
[7] = tested on: OVCAR-8 ovarian
[8] = tested on: UACC-257 melanoma
[9] = tested on: A549 NSCLC
[10] = tested on: RXF-631 renal
[11] = tested on: A498 renal
[12] = tested on: SK-OV-3 ovarian
[13] = tested on: K-562 leukemia
[14] = tested on: HCT-116 colon
[15] = tested on: HOP-92 NSCLC
[16] = tested on: SK-MEL-2 melanoma
[17] = tested on: SF-295 CNS
[18] = tested on: UACC-62 melanoma
[19] = tested on: TK-10 renal
[20] = tested on: OVCAR-4 ovarian
[21] = tested on: MALME-3M melanoma
[22] = tested on: DMS 114 small cell lung
[23] = tested on: EKVX NSCLC
[24] = tested on: KM20L2 colon
[25] = tested on: HCC-2998 colon
[26] = tested on: SK-MEL-5 melanoma
[27] = tested on: RXF 393 renal
[28] = tested on: COLO 205 colon
[29] = tested on: SF-539 CNS
[30] = tested on: HCT-15 colon
[31] = tested on: XF 498 CNS
[32] = tested on: OVCAR-3 ovarian
[33] = tested on: CAKI-1 renal
[34] = tested on: SF-268 CNS
[35] = tested on: DMS 273 small cell lung
[36] = tested on: LXFL 529 NSCLC
[37] = tested on: SN12C renal
[38] = tested on: LOX IMVI melanoma
[39] = tested on: IGROV1 ovarian
[40] = tested on: MOLT-4 leukemia
[41] = tested on: ACHN renal
[42] = tested on: SNB-19 CNS
[43] = tested on: NCI-H23 lung
[44] = tested on: HL-60(TB) leukemia
[45] = tested on: M19-MEL melanoma
[46] = tested on: U251 CNS
[47] = tested on: 786-0 renal
[48] = tested on: SNB-78 CNS
[49] = tested on: M14 melanoma
[50] = tested on: CCRF-CEM leukemia
[51] = tested on: OVCAR-5 ovarian
[52] = tested on: SNB-75 CNS
[53] = tested on: RPMI-8226 leukemia
[54] = tested on: SW-620 colon
[55] = tested on: NCI-H460 lung
[56] = tested on: SR leukemia
[57] = tested on: NCI-H522 lung
[58] = tested on: SK-MEL-28 melanoma
[59] = tested on: NCI-H226 lung

For CCC(=O)N1C(=O)OCC1C(C)C (stereo not drawn), the TGI [1] was > 100 µM, the TGI [2] was > 100 µM and the TGI [3] was > 100 µM. The TGI [4] was > 100 µM, the TGI [5] was > 100 µM and the TGI [6] was > 100 µM. For the same compound, the TGI [7] was > 100 µM, the TGI [8] was > 100 µM and the TGI [9] was > 100 µM. For the same compound, the TGI [10] was > 100 µM, the TGI [11] was > 100 µM and the TGI [12] was > 100 µM. The TGI [13] was > 100 µM, the TGI [14] was > 100 µM and the TGI [15] was > 100 µM. For the same compound, the TGI [16] was > 100 µM, the TGI [17] was > 100 µM and the TGI [18] was > 100 µM. For the same compound, the TGI [19] was > 100 µM, the TGI [20] was > 100 µM and the TGI [21] was > 100 µM. For the same compound, the TGI [22] was > 100 µM, the TGI [23] was > 100 µM and the TGI [24] was > 100 µM. The TGI [25] was > 100 µM, the TGI [26] was > 100 µM and the TGI [27] was > 100 µM. For the same compound, the TGI [28] was > 100 µM, the TGI [29] was > 100 µM and the TGI [30] was > 100 µM. The TGI [31] was > 100 µM, the TGI [32] was > 100 µM and the TGI [33] was > 100 µM. For the same compound, the TGI [34] was > 100 µM, the TGI [35] was > 100 µM and the TGI [36] was > 100 µM. For the same compound, the TGI [37] was > 100 µM, the TGI [38] was > 100 µM and the TGI [39] was > 100 µM. The TGI [40] was > 100 µM, the TGI [41] was > 100 µM and the TGI [42] was > 100 µM. For the same compound, the TGI [43] was > 100 µM, the TGI [44] was > 100 µM and the TGI [45] was > 100 µM. The TGI [46] was > 100 µM, the TGI [47] was > 100 µM and the TGI [48] was > 100 µM. The TGI [49] was > 100 µM, the TGI [50] was > 100 µM and the TGI [51] was > 100 µM. For the same compound, the TGI [52] was > 100 µM, the TGI [53] was > 100 µM and the TGI [54] was > 100 µM. The TGI [55] was > 100 µM.
For N#Cc1ccc(Cc2ccccn2)cc1Cl, the TGI [1] was > 100 µM, the TGI [2] was > 100 µM and the TGI [3] was > 100 µM. The TGI [4] was > 100 µM, the TGI [5] was > 100 µM and the TGI [6] was > 100 µM. For the same compound, the TGI [7] was > 100 µM, the TGI [8] was > 100 µM and the TGI [9] was > 100 µM. The TGI [10] was > 100 µM, the TGI [12] was > 100 µM and the TGI [13] was > 100 µM. For the same compound, the TGI [56] was > 100 µM, the TGI [15] was > 100 µM and the TGI [16] was > 100 µM. The TGI [17] was > 100 µM, the TGI [18] was > 100 µM and the TGI [19] was > 100 µM. For the same compound, the TGI [20] was > 100 µM, the TGI [21] was > 100 µM and the TGI [22] was > 100 µM. The TGI [23] was > 100 µM, the TGI [57] was > 100 µM and the TGI [26] was > 100 µM. For the same compound, the TGI [27] was > 100 µM, the TGI [28] was > 100 µM and the TGI [29] was > 100 µM. The TGI [33] was > 100 µM, the TGI [58] was > 100 µM and the TGI [34] was > 100 µM. The TGI [35] was > 100 µM, the TGI [36] was > 100 µM and the TGI [37] was > 100 µM. The TGI [38] was > 100 µM, the TGI [39] was > 100 µM and the TGI [40] was > 100 µM. For the same compound, the TGI [41] was > 100 µM, the TGI [42] was > 100 µM and the TGI [59] was > 100 µM. The TGI [43] was > 100 µM, the TGI [44] was > 100 µM and the TGI [45] was > 100 µM. For the same compound, the TGI [46] was > 100 µM, the TGI [47] was > 100 µM and the TGI [48] was > 100 µM. For the same compound, the TGI [50] was > 100 µM, the TGI [51] was > 100 µM and the TGI [54] was > 100 µM. The TGI [55] was > 100 µM.
N#CC(/C(CCC(=O)Nc1ccc(Cl)cc1)=N/NC(=O)c1cc2ccccc2cc1O)c1ccccc1 (stereo not drawn) was tested, and the TGI [1] was > 100 µM, the TGI [2] was 85.3 µM and the TGI [3] was 89.8 µM. For the same compound, the TGI [4] was > 100 µM, the TGI [5] was > 100 µM and the TGI [6] was > 100 µM. For the same compound, the TGI [7] was > 100 µM, the TGI [8] was > 100 µM and the TGI [9] was > 100 µM. For the same compound, the TGI [14] was > 100 µM, the TGI [15] was > 100 µM and the TGI [16] was 61.2 µM. For the same compound, the TGI [17] was > 100 µM, the TGI [18] was > 100 µM and the TGI [19] was > 100 µM. The TGI [20] was > 100 µM, the TGI [21] was > 100 µM and the TGI [22] was 87.7 µM. The TGI [23] was > 100 µM, the TGI [24] was > 100 µM and the TGI [25] was > 100 µM. For the same compound, the TGI [26] was 40.6 µM, the TGI [27] was > 100 µM and the TGI [28] was > 100 µM. The TGI [31] was > 100 µM, the TGI [32] was > 100 µM and the TGI [58] was > 100 µM. The TGI [34] was > 100 µM, the TGI [36] was > 100 µM and the TGI [37] was > 100 µM. For the same compound, the TGI [38] was 73.1 µM, the TGI [39] was > 100 µM and the TGI [40] was 94.9 µM. The TGI [41] was > 100 µM, the TGI [42] was > 100 µM and the TGI [59] was > 100 µM. For the same compound, the TGI [43] was > 100 µM, the TGI [44] was 33 µM and the TGI [45] was > 100 µM. The TGI [46] was > 100 µM, the TGI [47] was > 100 µM and the TGI [48] was > 100 µM. The TGI [49] was > 100 µM, the TGI [50] was 49.4 µM and the TGI [51] was 60.6 µM. The TGI [52] was > 100 µM, the TGI [53] was > 100 µM and the TGI [54] was > 100 µM. The TGI [55] was > 100 µM.
